# Measured values as given in ChEMBL document CHEMBL1201862, “PubChem BioAssay data set” (2004).
#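 Dose response: 5 concentrations. Exposure: 48 h. Format: 96-well plates. Endpoint: linear interpolation; highest concentration if not reached. Abbreviation: GI50, concentration required for 50% inhibition of growth.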 Activity calls are given as the source filed them. No stated cut-off is given here; in the data, active = GI50 up to about 1.1 µM and inactive = higher.
# What was measured:
# Assay in all cases: NCI-60 cell line screen, 48 h
# KM-20L2 = system: KM-20L2
# LXFL 529 = system: LXFL 529
# M19-MEL = system: M19-MEL
# SNB-78 = system: SNB-78
# XF498 = system: XF498
# HOP-18 = system: HOP-18
# DMS-114 = system: DMS-114
# DMS-273 = system: DMS-273
Compound,GI50 (KM-20L2),GI50 (LXFL 529),GI50 (M19-MEL),GI50 (SNB-78),GI50 (XF498),GI50 (HOP-18),GI50 (DMS-114),GI50 (DMS-273)
CC(C)NC(=O)OCc1nnn2c1CCC2,> 100 µM (inactive),> 100 µM (inactive),> 100 µM (inactive),> 100 µM (inactive),> 100 µM (inactive),–,–,–
Cc1nc(N(CCO)CCO)c2sc(=S)n(-c3ccccc3)c2n1,–,> 100 µM (inactive),–,–,–,> 100 µM (inactive),–,–
C=C(/C=C/C=C(/CCC=C(C)C)COC(C)=O)[C@@H]1CC[C@]2([C@H](CCCO)/C(=C(/C)C=O)CC[C@]2(C)O)[C@@H]1O,14.4 µM (inactive),–,15.7 µM (inactive),> 10 µM (inactive),–,11.5 µM (inactive),14.2 µM (inactive),2.27 µM (inactive)
C=C1CC(OC)(C(OC)C(=O)N[C@H]2OCO[C@H]3C2O[C@H](C[C@@H](COC)OC)C(C)(C)C3OC)O[C@H](C)[C@@H]1C (some centres undefined),0.931 µM (active),–,0.778 µM (active),1.11 µM (active),0.604 µM (active),2.08 µM (inactive),1.22 µM (inactive),0.875 µM (active)
Nc1ccc2c(c1)C1=NNC(=O)CC1C2 (centres undefined),> 100 µM (inactive),–,> 100 µM (inactive),> 100 µM (inactive),> 100 µM (inactive),> 77.6 µM (inactive),> 100 µM (inactive),> 100 µM (inactive)
O=C1C2c3[nH]c4ccccc4c3C3CCSCC3C2C(=O)N1c1ccccc1 (centres undefined),> 100 µM (inactive),> 100 µM (inactive),> 100 µM (inactive),> 100 µM (inactive),> 100 µM (inactive),–,–,> 100 µM (inactive)
CC(=O)O[C@H]1CC[C@@]2(C)[C@H](CC[C@@H]3[C@@H]2CC[C@]2(C)[C@@H](c4ccc(=O)oc4)C[C@H]4O[C@]342)C1,1.38 µM (inactive),–,1.05 µM (active),0.404 µM (active),1.3 µM (inactive),0.423 µM (active),0.119 µM (active),0.458 µM (active)
CC(=O)NC1=C(C)C(=O)c2c(nc3n2CCC3OC(=O)c2ccccc2)C1=O (centres undefined),–,1.56 µM (inactive),1.69 µM (inactive),2.71 µM (inactive),–,–,0.805 µM (active),2.07 µM (inactive)
O=C1CCCCCCCCCCOC(=O)CCCCCCCCCCO1,> 10 µM (inactive),> 100 µM (inactive),> 100 µM (inactive),> 100 µM (inactive),–,> 100 µM (inactive),> 100 µM (inactive),> 100 µM (inactive)
CC12CCC3C(CCC4CC(OC(=O)Cc5ccc(N(CCCl)CCCl)cc5)CCC43C)C1CCC(=O)N2 (centres undefined),17.4 µM (inactive),16.2 µM (inactive),17.2 µM (inactive),24.4 µM (inactive),16.5 µM (inactive),17.3 µM (inactive),12.8 µM (inactive),12.9 µM (inactive)
Cc1nc2ccccc2c(=O)n1CC(=O)O,> 100 µM (inactive),–,> 100 µM (inactive),> 100 µM (inactive),> 100 µM (inactive),> 100 µM (inactive),> 100 µM (inactive),> 100 µM (inactive)
O=C(c1ccccc1)c1cc(Cl)ccc1NCn1nnc2ccccc21,60.4 µM (inactive),98.9 µM (inactive),81.7 µM (inactive),–,> 100 µM (inactive),> 100 µM (inactive),31.5 µM (inactive),39.1 µM (inactive)
